The values below come from patent US20080194611A1, “Modulation of Cell Barrier Dysfunction” (priority 2005, published 2008).

Molecules are shown by their SMILES.

The subject of one series is P. aeruginosa. The format is cell-based, Pseudomonas aeruginosa.
The test system of series [1] is PA-I lectin/adhesin expression in P. aeruginosa PA27853 and PAO1.
In series [2] the test system is pyocyanin (PCN) production in P. aeruginosa. The format is cell-based, Pseudomonas aeruginosa.
Series [3] concerns PA-I lectin/adhesin expression in P. aeruginosa 27853/PLL-EGFP.
The conditions of series [4]: cited from earlier work.
In series [5] the test system is Human pulmonary microvascular endothelial cell. The format is cell-based.
For series [6] the following is noted: methadone maintenance patients; mean dose 0.1 mg/kg intravenously; cited from earlier work.
The test system of another series is S1P3 receptor. As to the kind of experiment: Tyrosine phosphorylation (transactivation) of the S1P3 receptor. The format is cell-based, Human.
The conditions of series [7]: in vivo; cited from earlier work.
Series [8] addresses T1, receptor tyrosine phosphatase mu (RPTPμ) (Homo sapiens, UniProt P28827).
T1 construct: Treated or untreated HPAEC lysates and/or immunoprecipitated RPTPμ were analyzed for tyrosine phosphatase activity; host or cells: human pulmonary endothelial cells (HPMVEC, 'HPAEC')
As to the kind of experiment: RPTPμ tyrosine phosphatase activity assay. The format is biochemical. The conditions noted are these: treatment of HPMVEC.

Series [9] concerns total endothelial cell tyrosine phosphatase activity. The series can be described thus: Total cellular tyrosine phosphatase activity assay. The format is cell-based, Human.
In series [10] the test system is membrane protein fractions of P. aeruginosa. As to the kind of experiment: Binding of morphine to P. aeruginosa membrane protein. Further details: species or system Pseudomonas aeruginosa.
The conditions of series [11]: intravenously applied; cited from earlier work.
In the next series the test system is P. aeruginosa PA27853. The format is in vivo, mice. Conditions: slow release morphine pellets; daily 1×10^8 cfu/ml PA27853.

T1 sequence (P28827 21-1452): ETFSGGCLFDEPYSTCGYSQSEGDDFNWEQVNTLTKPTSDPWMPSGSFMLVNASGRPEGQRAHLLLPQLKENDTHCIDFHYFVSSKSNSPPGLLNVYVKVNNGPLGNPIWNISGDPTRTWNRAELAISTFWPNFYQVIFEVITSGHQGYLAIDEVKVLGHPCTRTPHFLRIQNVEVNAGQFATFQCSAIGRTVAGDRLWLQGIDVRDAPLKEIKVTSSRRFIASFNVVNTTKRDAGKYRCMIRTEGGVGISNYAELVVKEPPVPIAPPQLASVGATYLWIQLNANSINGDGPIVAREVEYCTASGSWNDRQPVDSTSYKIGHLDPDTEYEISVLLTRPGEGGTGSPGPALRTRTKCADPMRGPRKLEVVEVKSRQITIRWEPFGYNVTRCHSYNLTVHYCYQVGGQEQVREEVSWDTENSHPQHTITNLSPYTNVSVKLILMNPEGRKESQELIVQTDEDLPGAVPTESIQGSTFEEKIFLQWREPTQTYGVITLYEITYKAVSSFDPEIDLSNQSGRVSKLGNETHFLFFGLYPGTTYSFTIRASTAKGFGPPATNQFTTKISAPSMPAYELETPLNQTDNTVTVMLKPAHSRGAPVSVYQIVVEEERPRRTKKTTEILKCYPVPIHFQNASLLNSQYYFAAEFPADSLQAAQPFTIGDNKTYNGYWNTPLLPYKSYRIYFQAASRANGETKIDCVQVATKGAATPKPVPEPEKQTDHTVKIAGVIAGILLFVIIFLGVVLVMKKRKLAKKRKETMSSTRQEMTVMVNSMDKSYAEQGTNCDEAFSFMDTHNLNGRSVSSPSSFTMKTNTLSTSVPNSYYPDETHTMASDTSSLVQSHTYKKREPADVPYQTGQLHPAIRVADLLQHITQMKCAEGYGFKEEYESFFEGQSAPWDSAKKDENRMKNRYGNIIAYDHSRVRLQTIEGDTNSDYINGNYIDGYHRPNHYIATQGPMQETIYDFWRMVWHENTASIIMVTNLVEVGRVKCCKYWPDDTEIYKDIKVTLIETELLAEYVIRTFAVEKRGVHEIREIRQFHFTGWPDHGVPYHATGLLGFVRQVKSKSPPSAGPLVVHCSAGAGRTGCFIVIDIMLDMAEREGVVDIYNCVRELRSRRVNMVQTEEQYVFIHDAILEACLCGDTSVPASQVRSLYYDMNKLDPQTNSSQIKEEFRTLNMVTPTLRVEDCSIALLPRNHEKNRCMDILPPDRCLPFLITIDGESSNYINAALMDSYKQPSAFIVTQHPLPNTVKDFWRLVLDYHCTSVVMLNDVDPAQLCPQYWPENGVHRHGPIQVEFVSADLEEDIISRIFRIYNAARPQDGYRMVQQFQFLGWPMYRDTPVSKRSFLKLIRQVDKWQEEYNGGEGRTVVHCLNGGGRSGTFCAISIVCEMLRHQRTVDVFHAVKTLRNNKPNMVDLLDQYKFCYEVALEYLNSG

Turning to `CCCC(=O)N[C@H]1CCOC1=O` [C4-HSL, C4-homoserine lactone], the “effect on bacterial growth” value in the series on P. aeruginosa is “Neither compound had an effect on bacterial growth”. In addition, in [1], the PA-I expression result was “induced PA-I expression” and the “increase in PA-I expression” value was about 16 fold. In series [2], the “PCN production in seven additional mvfR mutants” value is listed as “none of these mutants produced PCN”; the “PCN production in ΔGacA and ΔMvfR” value was “unable to restore PCN production”; the “PCN production in ΔGacA/gacA” value is “decreased, albeit minimally”; the “PCN production in ΔMvfR/mvfR” value is “further increased the already elevated PCN production”. Moreover, in series [2], the “PCN production versus cell density” value is listed as “shift in the production of PCN at lower cell densities”; the “PCN response of MvfR mutant 121-332” value was “did not respond to U-50,488 or C4-HSL”; the “PCN response of MvfR mutants 1-292, 1-291, 1-283” value was “did not respond to U-50,488 and C4-HSL”; the “PCN response of MvfR mutants 1-299 and 1-293” value is “responded to U-50,488 and C4-HSL with enhanced PCN production”. Also, in series [2], the “dynamic tracking of PCN production in ΔMvfR/mvfR” value is recorded as “demonstrated a shift in PCN production at lower cell densities” and the “dynamics of PCN production in ΔGacA/gacA” value was “had no effect on the dynamics of PCN production”.

For `C[N+]1(CC2CC2)CCC23c4c5ccc(O)c4OC2C(=O)CCC3(O)C1C5` (centres unmarked) [MNTX, N-methylnaltrexone], the “effect on morphine-induced PA-I lectin/adhesin expression” value in series [3] is listed as “significantly attenuated”. In [4], the “lipid solubility / polarity” value is “greater polarity and lower lipid solubility”. In addition, in series [5], the “MNTX protection from thrombin- and LPS-induced disruption with mOP-R silenced (siRNA)” value is “little effect”; the “MNTX protection with RPTPμ silenced (siRNA)” value was “inhibited the protective effects of MNTX”; the “MNTX protection with S1P3 receptor silenced (siRNA)” value is recorded as “inhibited”; the “dose dependence of barrier protective effects” value is reported as “Decreasing the dose of MNTX below 0.1 μM attenuated its barrier protective effects”. Moreover, in series [5], the “effect on LPS-induced endothelial cell barrier disruption” value is given as “attenuated endothelial cell barrier disruption”; the “effect on MS- and DAMGO-induced endothelial cell barrier disruption” value is “blocked”; the “effect on S1P barrier enhancement” value is on record as “increased the sustained endothelial cell barrier-enhancing effect”; the “effect on ionomycin-induced endothelial cell barrier disruption” value was “but not from the Ca^2+ ionophore, ionomycin”. Also, the “effect on thrombin-induced endothelial cell barrier disruption” value in [5] is on record as “attenuated endothelial cell barrier disruption”. In addition, the mean plasma levels in series [6] was 162 ng/mL. Further, the “Src tyrosine phosphorylation of isolated S1P3 receptor, in vitro” value in the series on S1P3 receptor (RPTPμ from MNTX-treated (1 hour) endothelial cells) was “blocked Src tyrosine phosphorylation of the S1P3 receptor”. Also, the “effect on agonist-induced S1P3 receptor transactivation” value with S1P3 receptor (pre-treatment) is “completely blocked”. Moreover, the “crossing of the blood-brain barrier” value in [7] was “does not cross the blood-brain barrier”. Further, the “RPTPμ tyrosine phosphatase activity” value in [8] is on record as “enhanced RPTPμ tyrosine phosphatase activity”. Besides, in [9], the “total endothelial cell tyrosine phosphatase activity” value was “increased total endothelial cell tyrosine phosphatase activity”. Besides, the “MNTX-mediated increase of total tyrosine phosphatase activity with RPTPμ silenced” value in series [9] (siRNA) is listed as “significantly attenuated”.

Regarding `CN1CC[C@]23c4c5ccc(O)c4O[C@H]2[C@@H](O)C=C[C@H]3[C@H]1C5` [morphine], the “binding to membrane protein fractions” value in series [10] was “binds to membrane protein fractions”. Further, in [5], the “effect of agonist alone on endothelial cell barrier function (TER)” value is “induced endothelial cell barrier disruption in a dose-dependent manner”. Besides, in [1], the “increase in PA-I expression” value is “four-fold” and the “response to express PA-I” value was “induce a robust response”. In addition, in series [11], the “concentration accumulated at tissue sites such as the intestinal mucosa” value is at most 100 µM. Also, in the series on P. aeruginosa PA27853, the “mice developing severe sepsis” value was 4/4 and the mortality result is “significant mortality”.
